Data: ChEMBL document CHEMBL3727364, “Resorcinol n-aryl amide compounds, for use as pyruvate dehydrogenase kinase inhibitors” (2015)

What was measured:
[1] = biological target: Pyruvate dehydrogenase kinase (Homo sapiens, UniProt Q15119+Q15120+Q16654+Q15118); assay: Inhibition of pyruvate dehydrogenase kinase in human PC3 cells incubated for 90 mins by phospho(Ser293)E1alpha MSP ELISA method; assay type: cell-based; conditions: pc-3
[2] = biological target: [Pyruvate dehydrogenase (acetyl-transferring)] kinase isozyme 1, mitochondrial (Homo sapiens, UniProt Q15118); assay: Binding affinity to pyruvate dehydrogenase kinase 1 (unknown origin) incubated for 90 mins by VER-00160364 probe based fluorescence polarization assay
[Pyruvate dehydrogenase (acetyl-transferring)] kinase isozyme 1, mitochondrial, sequence (Q15118 whole entry): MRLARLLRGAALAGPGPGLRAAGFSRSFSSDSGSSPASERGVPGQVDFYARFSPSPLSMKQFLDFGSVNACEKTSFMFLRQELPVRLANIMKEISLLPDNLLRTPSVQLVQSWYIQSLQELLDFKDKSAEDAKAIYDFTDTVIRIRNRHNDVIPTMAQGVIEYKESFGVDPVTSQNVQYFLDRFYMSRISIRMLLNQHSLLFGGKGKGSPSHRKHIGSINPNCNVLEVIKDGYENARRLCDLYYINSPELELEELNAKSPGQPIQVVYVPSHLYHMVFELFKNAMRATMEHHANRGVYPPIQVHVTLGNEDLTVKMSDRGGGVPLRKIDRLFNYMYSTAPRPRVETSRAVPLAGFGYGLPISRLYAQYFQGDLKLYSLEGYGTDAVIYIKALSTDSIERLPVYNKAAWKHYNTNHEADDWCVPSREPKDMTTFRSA

Compound	IC50 [1] [nM]	IC50 [2] [nM]
Cc1cnc(Cl)nc1-c1ccc(N(Cc2cccc(CN3CCCCC3)c2)C(=O)c2ccc(O)cc2O)cc1	1000	
Cc1cc(S(=O)(=O)N2CCOCC2)cnc1-c1ccc(N(Cc2ccsc2)C(=O)c2ccc(O)cc2O)cc1	1000	100
COc1ccc(CN(C)C(=O)c2ccc(N(Cc3cc(C)no3)C(=O)c3cc(Cl)c(O)cc3O)cc2)cc1	1000	100
Cc1cc(S(=O)(=O)N2CC(F)(F)C2)cnc1-c1ccc(N(Cc2ccccc2)C(=O)c2ccc(O)cc2O)cc1	10000	100
Cc1cc(S(=O)(=O)NCc2cccs2)cnc1-c1ccc(N(Cc2cnsc2)C(=O)c2ccc(O)cc2O)cc1	1000	
CN(Cc1ccc2nccnc2c1)C(=O)c1ccc(N(Cc2ccsc2)C(=O)c2ccc(O)cc2O)cc1	1000	10
Cc1cc2ccccc2nc1-c1ccc(N(Cc2ccc(OCCN3CCCC3)cc2)C(=O)c2ccc(O)cc2O)cc1	1000	
CN(Cc1ccc2ccccc2c1)C(=O)c1ccc(N(Cc2cccnc2)C(=O)c2ccc(O)cc2O)cc1	1000	10
COc1cnc(Cl)nc1-c1ccc(N(Cc2ccccc2)C(=O)c2cc(Cl)c(O)cc2O)cc1	100	100
Cc1cc(S(=O)(=O)NCc2cccnc2)cnc1-c1ccc(N(Cc2ccccc2)C(=O)c2cc(Cl)c(O)cc2O)cc1	1000	100
Cc1cc(S(=O)(=O)NCc2ccccc2)cnc1-c1ccc(N(Cc2cccnc2)C(=O)c2ccc(O)cc2O)cc1	1000	10
Cc1cc(S(=O)(=O)NCc2ccccn2)cnc1-c1ccc(N(Cc2ccsc2)C(=O)c2cc(Cl)c(O)cc2O)cc1	1000	
Cc1cnc(Cl)nc1-c1ccc(N(Cc2cccc(OCCN(C)C)c2)C(=O)c2ccc(O)cc2O)cc1	1000	
Cc1cnc(Cl)nc1-c1ccc(N(Cc2ccc(CN3CCC(F)(F)C3)cc2)C(=O)c2ccc(O)cc2O)cc1	100	
Cc1cc(C(=O)N(Cc2ccccc2)c2ccc(C(=O)N(C)Cc3ccc4nccnc4c3)cc2)c(O)cc1O	1000	
Cc1cnc(Cl)nc1-c1ccc(N(Cc2cccc(CN(C)C)c2)C(=O)c2ccc(O)cc2O)cc1	1000	
CCN(CC)CCOc1ccc(CN(C(=O)c2ccc(O)cc2O)c2ccc(-c3nc4ccccc4cc3C)cc2)cc1	1000	
Cc1cc(S(=O)(=O)NCc2cccs2)cnc1-c1ccc(N(Cc2cccnc2)C(=O)c2ccc(O)cc2O)cc1	1000	10
Cc1cnc(Cl)nc1-c1ccc(N(Cc2cccc(Cl)c2)C(=O)c2ccc(O)cc2O)cc1	100	
COC(=O)c1nc(-c2ccc(N(Cc3ccsc3)C(=O)c3ccc(O)cc3O)cc2)c2ccccc2n1	1000	100
Cc1cnc(Cl)nc1-c1ccc(N(Cc2ccc(CNC(=O)[C@H](C)NC(=O)OCc3ccccc3)cc2)C(=O)c2ccc(O)cc2O)cc1	100	
Cc1cnc(Cl)nc1-c1ccc(N(Cc2ccc(CNC(=O)C3CCC3)cc2)C(=O)c2ccc(O)cc2O)cc1	100	
COc1cnc(Cl)nc1-c1ccc(N(Cc2cnsc2)C(=O)c2ccc(O)cc2O)cc1	1000	
CCc1cnc(C)nc1-c1ccc(N(Cc2cccnc2)C(=O)c2ccc(O)cc2O)cc1		10
Cc1cnc(Cl)nc1-c1ccc(N(Cc2ccsc2)C(=O)c2ccc(O)cc2O)cc1		100
Cc1cnc(NC(C)C)nc1-c1ccc(N(Cc2ccccc2)C(=O)c2ccc(O)cc2O)cc1		10000

Other lines, results leading:

IC50 [1] [nM]	IC50 [2] [nM]	Compound
1000		Cc1cc(C(=O)N(Cc2ccccc2)c2ccc(C(=O)N(C)C)cc2)c(O)cc1O
100		Cc1cnc(Cl)nc1-c1ccc(N(Cc2ccc(CNC(=O)c3cccs3)cc2)C(=O)c2ccc(O)cc2O)cc1
100		COC1CCN(Cc2ccc(CN(C(=O)c3ccc(O)cc3O)c3ccc(-c4nc(Cl)ncc4C)cc3)cc2)C1 (centres undefined)
1000		Cc1cnc(Cl)nc1-c1ccc(N(Cc2cccc(OCCN3CCOCC3)c2)C(=O)c2ccc(O)cc2O)cc1
1000	10	Cc1cnc(Cl)nc1-c1ccc(N(Cc2cccnc2)C(=O)c2ccc(O)cc2O)cc1
1000		CCc1cnc(C)nc1-c1ccc(N(Cc2ccsc2)C(=O)c2ccc(O)cc2O)cc1
1000	10	COc1cnc(Cl)nc1-c1ccc(N(Cc2cccnc2)C(=O)c2ccc(O)cc2O)cc1
	100	CN(Cc1cccs1)C(=O)c1ccc(N(Cc2ccccc2)C(=O)c2ccc(O)cc2O)cc1
	1000	Cc1c(Cl)ncc2cc(-c3ccc(N(Cc4cccnc4)C(=O)c4ccc(O)cc4O)cc3)ccc12
	1000	CN(C)C(=O)c1ccc(N(Cc2csc3ccc(Cl)cc23)C(=O)c2cc(Cl)c(O)cc2O)cc1
	1000	COc1cnc(Cl)nc1-c1ccc(N(Cc2ccccc2)C(=O)c2cc(C)c(O)cc2O)cc1
